In patent US20260176232A1, “PROBENECID COMPOUNDS FOR THE TREATMENT OF INFLAMMASOME-MEDIATED DERMATOLOGICAL CONDITIONS” (Bacainn Biotherapeutics, Ltd., priority 2022, published 2026):

Tests used:
Recombinant NLRP3 = assay: Photo-affinity labelling of recombinant NLRP3, anti-PEG immunoblot (FIG. 9C); format: binding; conditions: pre-incubation 20 mins, UV 365 nm, then ADS165
NLRP3 [1] = assay: D4D8T immunoprecipitation of NLRP3 from photo-labelled iBMDMs (FIG. 9D); conditions: ADS165, ADS167 1 mM; MCC 50 μM; UV 365 nm 30 mins
[2] = target: T1, recombinant full length NLRP1 (Homo sapiens, UniProt Q9C000); assay: Photo-affinity labelling of recombinant full length NLRP1, anti-PEG immunoblot (FIG. 9E); format: binding; conditions: pre-incubation, UV 365 nm, then ADS165
T1 sequence (Q9C000 1-1473): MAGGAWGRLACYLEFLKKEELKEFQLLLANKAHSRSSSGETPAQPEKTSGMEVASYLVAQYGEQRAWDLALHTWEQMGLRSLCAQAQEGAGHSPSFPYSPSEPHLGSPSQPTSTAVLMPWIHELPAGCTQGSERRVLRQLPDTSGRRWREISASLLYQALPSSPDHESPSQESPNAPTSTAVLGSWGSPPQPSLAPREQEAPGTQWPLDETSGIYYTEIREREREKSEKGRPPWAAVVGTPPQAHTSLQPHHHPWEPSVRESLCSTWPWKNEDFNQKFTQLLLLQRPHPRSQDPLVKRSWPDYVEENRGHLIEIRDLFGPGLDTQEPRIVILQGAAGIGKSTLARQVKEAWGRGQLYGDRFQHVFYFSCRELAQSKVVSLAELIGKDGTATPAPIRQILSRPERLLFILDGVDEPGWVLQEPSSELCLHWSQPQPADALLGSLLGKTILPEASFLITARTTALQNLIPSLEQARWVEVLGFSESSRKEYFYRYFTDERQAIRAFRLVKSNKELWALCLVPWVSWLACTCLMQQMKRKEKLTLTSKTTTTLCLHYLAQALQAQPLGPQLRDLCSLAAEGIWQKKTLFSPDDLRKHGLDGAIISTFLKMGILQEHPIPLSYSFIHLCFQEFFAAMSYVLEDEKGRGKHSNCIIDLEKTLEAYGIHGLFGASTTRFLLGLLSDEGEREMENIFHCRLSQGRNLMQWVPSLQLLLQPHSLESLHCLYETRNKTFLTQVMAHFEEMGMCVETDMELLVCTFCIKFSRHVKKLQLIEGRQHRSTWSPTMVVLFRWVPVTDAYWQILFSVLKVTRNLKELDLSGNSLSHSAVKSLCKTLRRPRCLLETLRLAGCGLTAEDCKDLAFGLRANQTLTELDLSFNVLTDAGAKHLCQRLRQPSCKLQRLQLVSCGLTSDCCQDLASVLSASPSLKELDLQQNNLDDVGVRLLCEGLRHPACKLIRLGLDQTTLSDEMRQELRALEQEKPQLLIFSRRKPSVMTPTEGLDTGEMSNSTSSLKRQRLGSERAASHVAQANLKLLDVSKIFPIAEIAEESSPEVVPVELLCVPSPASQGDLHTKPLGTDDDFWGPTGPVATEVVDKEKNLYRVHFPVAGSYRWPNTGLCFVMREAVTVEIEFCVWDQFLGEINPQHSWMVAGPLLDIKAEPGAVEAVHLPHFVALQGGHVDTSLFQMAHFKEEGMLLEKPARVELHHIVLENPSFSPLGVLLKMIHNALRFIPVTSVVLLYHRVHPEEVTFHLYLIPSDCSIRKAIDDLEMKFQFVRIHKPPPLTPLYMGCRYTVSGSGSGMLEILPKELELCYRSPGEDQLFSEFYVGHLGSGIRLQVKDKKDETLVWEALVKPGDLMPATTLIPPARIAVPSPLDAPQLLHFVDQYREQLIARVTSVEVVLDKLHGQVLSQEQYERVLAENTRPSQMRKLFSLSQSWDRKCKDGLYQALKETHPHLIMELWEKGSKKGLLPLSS
Experimental: FIGS. 9A-9F are a series of panels showing ADS032 (also referred to herein as “BT032”) directly binds to NLRP1 and NLRP3. FIGS. 9A and 9B are chemical structures of ADS165 and ADS167. […] ADS165 was then co-incubated for 20 mins and UV treated for 20 mins to cross-link associated compound and protein. Protein was separated by SDS-PAGE and immunoblotted (IB) with anti-PEG to visualize ADS165-linked protein. FIG. 9D: iBMDM cells stably expressing NLRP3-Flag were treated for 30 mins with ADS165, ADS167 (1 mM) or MCC955 (50 μM) for 30 mins, and irradiated with UV 365 nm for 30 mins. Cells were lysed with buffer and immunoprecipitation (IP) of NLRP3 performed with α-NLRP3 (D4D8T) antibody. Levels of precipitated (IP) and total cellular lysate (Input) NLRP3 were determined by immunoblotting with α-NLRP3 (Cryo-2) antibody. FIG. 9F: NLRP1-Flag was expressed in HEK293T cells (1×10^6) for 20 h and treated with ADS165 (1 mM) for 30 mins where indicated, followed by UV 365 nm for a further 30 mins. Cells were lysed with lysis buffer and […] immunoprecipitated with α-Flag (M2) antibody. Proteins were separated by SDS-PAGE and ADS165-linked NLRP1 identified by immunoblot with a-PEG, while total precipitated NLRP1 visualized by immunoblot with α-NLRP1 and total cell lysate by α-Flag. Data shown is representative of three independent experiments.
Next, it was determined whether ADSO32 could interact with NLRP1. […] To further investigate this interaction, ectopically expressed Flag-tagged NLRP1 was immunoprecipitated from cell lysates pretreated or not with ADS165 and exposed to UV light.

NLRP3 [3] = target: T2, NLRP3 (Mus musculus, UniProt Q8R4B8); assay: NLRP3-induced IL-1β secretion from iBMDMs, photo-affinity probes; format: cell-based; conditions: data not shown
T2 construct: endogenous in cells; host or cells: iBMDMs
T2 sequence (Q8R4B8 whole entry): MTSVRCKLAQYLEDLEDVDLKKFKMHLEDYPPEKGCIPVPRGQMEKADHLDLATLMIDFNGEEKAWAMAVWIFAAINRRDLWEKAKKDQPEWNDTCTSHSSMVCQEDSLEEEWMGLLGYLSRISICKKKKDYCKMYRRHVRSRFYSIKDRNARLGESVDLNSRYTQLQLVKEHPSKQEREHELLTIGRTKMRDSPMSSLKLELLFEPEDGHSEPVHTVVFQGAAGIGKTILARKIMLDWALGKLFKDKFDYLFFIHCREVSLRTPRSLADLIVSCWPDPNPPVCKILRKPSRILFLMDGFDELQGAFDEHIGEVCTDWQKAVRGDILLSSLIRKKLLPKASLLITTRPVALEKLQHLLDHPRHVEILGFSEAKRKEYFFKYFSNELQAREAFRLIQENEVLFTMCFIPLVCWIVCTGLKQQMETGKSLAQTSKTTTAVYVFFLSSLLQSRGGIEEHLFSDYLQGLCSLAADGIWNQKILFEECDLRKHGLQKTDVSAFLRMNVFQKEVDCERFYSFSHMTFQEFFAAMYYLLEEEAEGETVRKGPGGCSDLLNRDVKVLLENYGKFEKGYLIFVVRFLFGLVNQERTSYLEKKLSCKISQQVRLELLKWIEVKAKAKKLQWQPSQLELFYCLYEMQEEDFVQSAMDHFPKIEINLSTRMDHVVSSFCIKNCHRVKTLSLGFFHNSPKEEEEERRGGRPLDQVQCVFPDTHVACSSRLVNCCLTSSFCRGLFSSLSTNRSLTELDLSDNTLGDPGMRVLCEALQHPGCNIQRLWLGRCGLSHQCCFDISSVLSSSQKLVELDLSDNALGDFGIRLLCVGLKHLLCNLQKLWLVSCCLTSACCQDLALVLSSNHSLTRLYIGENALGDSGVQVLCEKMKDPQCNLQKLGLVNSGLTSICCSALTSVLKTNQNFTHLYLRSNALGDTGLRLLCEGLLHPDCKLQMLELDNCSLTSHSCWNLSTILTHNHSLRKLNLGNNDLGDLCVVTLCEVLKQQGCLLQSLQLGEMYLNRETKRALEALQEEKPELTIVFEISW
Excerpt: To verify interaction with target proteins, a photo-affinity labeling strategy (MacKinnon+Taunton, 2009) was developed where two modified versions of ADSO32 (1) containing an alkyne photoactivatable moiety linked with a PEG550 moiety to allow visualization (FIG. 9A) termed ADS165; and (2) ADSO32 linked with a diazirine photo-affinity label, (FIG. 9B) termed ADS167 were synthesized. Both photo-affinity labels covalently cross-link to molecular targets when exposed to ultraviolet light (365 nm).

NLRP1 inflammasome [4] = assay: IL-1β secretion in macrophages challenged with L18-MDP (FIG. 7); format: cell-based, human; conditions: 20, 100, 350 μM, L18-MDP 100 μg/mL 16 hours, secreted IL-1β
Excerpt: (§1) In vitro stimulation of human macrophages.

NLRP3 inflammasome = NLRP3 inflammasome (Mus musculus, UniProt Q8R4B8); assay: IL-1β secretion (ELISA) in LPS-primed iBMDMs stimulated with silica or nigericin; format: cell-based, murine (C57BL/6); design: endogenous in cells; host or cells: immortalized wild-type C57BL/6 bone-marrow derived macrophages (iBMDMs), LPS-primed; conditions: compared with probenecid in DMSO or PBS
Sequence of NLRP3 inflammasome (Q8R4B8 whole entry): as above
Experimental: In vitro stimulation of murine macrophages. Immortalized wild-type C57BL/6 bone-marrow derived macrophages (iBMDMs) were grown in DMEM supplemented with 10% heat inactivated FBS and 2 mM glutamine. iBMDMs were seeded in 96-well plates 24 hours prior incubation with lipopolysaccharide (LPS; 100 ng/mL) for 3 hours. Cells were then incubated with a control probenecid compound (probenecid dissolved in DMSO (Prob/D), probenecid dissolved in PBS (Prob/P)) or one of the probenecid analogs of the present technology (BT032, BT132, BT133, BT134, BT135, BT136, BT137, BT138, BT139, or BT140) at concentrations of 300 μM, 150 μM, 30 μM, or 3 μM 1 hour prior to stimulation with NLRP3 inflammasome activators, silica ([…]) or nigericin (6 μM). After an additional 6 hours, cell supernatants were collected and levels of IL-1β were quantified by ELISA. These experiments were run in triplicate three times.

NLRP1 inflammasome [5] = assay: IL-1β secretion in macrophages challenged with L18-MDP (FIG. 4C); format: cell-based, human; conditions: BT032 20, 100 μM; MCC950 5 μM; L18-MDP 100 μg/ml 16 h
Excerpt: as §1

CCCCN(CCC)S(=O)(=O)c1ccc(-c2ccc(CCCC(=O)NCc3ccc(C4(C(F)(F)F)N=N4)cc3)cc2)cc1 [ADS167]
competition with ADS165 labelling of NLRP3 (Recombinant NLRP3): inhibited the ability of ADS165 to label NLPR3
D4D8T-mediated NLRP3 immunoprecipitation (NLRP3 [1]): reduced the efficacy of D4D8T-mediated NLRP3 immunoprecipitation
competition with ADS165 interaction with NLRP1 [2]: could ablate interaction
NLRP3-induced IL-1β secretion from iBMDMs (NLRP3 [3]): still able to inhibit NLRP3-induced IL-1β secretion
efficacy relative to ADS032 (NLRP3-induced IL-1β secretion) (NLRP3 [3]): reduced efficacy as compared to ADS032

CCCN(CCC)S(=O)(=O)c1ccc(N2CCC(CCCC(=O)O)CC2)cc1 [BT135, 4-(1-(4-(N,N-dipropylsulfamoyl)-phenyl)piperidin-4-yl)butanoic acid]
NLRP1 (L18-MDP)-induced inflammasome activation (NLRP1 inflammasome [4]): dose-dependently inhibited

CCCN(CCC)S(=O)(=O)c1ccc(-c2nc(CCCC(=O)O)cs2)cc1 [BT136, 4-(2-(4-(N,N-dipropylsulfamoyl)phenyl)thiazol-4-yl)butanoic acid]
potency versus control probenecid compounds (IL-1β secretion) (NLRP3 inflammasome): more potent than the control probenecid compounds
NLRP1 (L18-MDP)-induced inflammasome activation (NLRP1 inflammasome [4]): dose-dependently inhibited

CC(C)(O)c1coc(S(=O)(=O)NC(=O)Nc2c3c(cc4c2CCC4)CCC3)c1 [MCC950, reference compound]
competition with ADS165 interaction with NLRP1 [2]: no effect
NLRP1 (L18-MDP)-induced inflammasome activation (NLRP1 inflammasome [5]): no impact
